Results reported in US8969552B2, “Arylsulfonylmethyl or arylsulfonamide substituted aromatic compounds suitable for treating disorders that respond to modulation of the dopamine D3 receptor” (AbbVie Deutschland GmbH & Co. KG, priority 2004, dated 2015).
Where a name gives a salt, the structure may show the parent alone.

Legend:
[1] = target: T1, human dopamine D2L receptors (long isoform) (Homo sapiens, UniProt P14416); test: Dopamine D2L receptor binding, [125I] iodospiperone displacement; settings: membranes of HEK-293 cells stably expressing human D2L receptor; 0.01 nM [125I] iodospiperone; 25° C., 60 minutes; read-out: Ki(D2)*
T1 construct: expressed in transfected cells; membranes
T1 sequence (P14416 whole entry, canonical isoform): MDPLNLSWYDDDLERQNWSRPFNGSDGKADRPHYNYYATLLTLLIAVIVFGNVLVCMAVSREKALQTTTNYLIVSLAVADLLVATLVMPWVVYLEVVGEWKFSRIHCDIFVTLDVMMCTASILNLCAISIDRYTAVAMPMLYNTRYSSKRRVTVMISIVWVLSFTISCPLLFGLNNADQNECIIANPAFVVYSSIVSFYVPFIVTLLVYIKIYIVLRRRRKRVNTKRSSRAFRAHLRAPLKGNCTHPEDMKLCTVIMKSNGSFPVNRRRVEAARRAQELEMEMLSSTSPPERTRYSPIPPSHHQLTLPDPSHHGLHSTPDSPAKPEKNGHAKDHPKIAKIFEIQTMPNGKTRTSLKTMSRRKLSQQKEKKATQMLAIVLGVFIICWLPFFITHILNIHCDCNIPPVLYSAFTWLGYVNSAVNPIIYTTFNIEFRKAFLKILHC
Protocol: (§1) The substance to be tested was either dissolved in methanol/Chremophor® (BASF-AG) or in dimethyl sulfoxide and then diluted with water to the desired concentration.
(§2) Each assay mixture was run in triplicate.
The incubation buffer contained 50 mM tris, 120 mM NaCl, 5 mM KCl, 2 mM CaCl2, 2 mM MgCl2 and 0.1% bovine serum albumin. The buffer was adjusted to pH 7.4 with HCl.
(§3) Measurement and Analysis:
(§4) After having been incubated at 25° C. for 60 minutes, the assay mixtures were filtered through a Whatman GF/B glass fiber filter under vacuum using a cell collecting device. The filters were transferred to scintillation viols using a filter transfer system. After 4 ml of Ultima Gold® (Packard) have been added, the samples were shaken for one hour and the radioactivity was then counted in a Beta-Counter (Packard, Tricarb 2000 or 2200CA). The cpm values were converted into dpm using a standard quench series and the program belonging to the instrument.
(§5) The inhibition curves were analyzed by means of iterative nonlinear regression analysis using the Statistical Analysis System (SAS) which is similar to the “LIGAND” program described by Munson and Rodbard.
(§6) The results of the receptro binding studies are expressed as receptor binding constants Ki(D2) and Ki(D3), respectively, as herein before described, and given in table 2.

[2] = target: T2, human dopamine D3 receptors (Homo sapiens, UniProt P35462); test: Dopamine D3 receptor binding, [125I]-iodosulpride displacement; settings: for Ki: membranes of HEK-293 cells stably expressing human D3 receptor, 0.1 nM [125I]-iodosulpride, 25° C., 60 minutes; for Ki(D2)*/Ki(D3)*: selectivity ratio of receptor binding constants D2 versus D3
T2 construct: expressed in transfected cells; membranes
T2 sequence (P35462 whole entry): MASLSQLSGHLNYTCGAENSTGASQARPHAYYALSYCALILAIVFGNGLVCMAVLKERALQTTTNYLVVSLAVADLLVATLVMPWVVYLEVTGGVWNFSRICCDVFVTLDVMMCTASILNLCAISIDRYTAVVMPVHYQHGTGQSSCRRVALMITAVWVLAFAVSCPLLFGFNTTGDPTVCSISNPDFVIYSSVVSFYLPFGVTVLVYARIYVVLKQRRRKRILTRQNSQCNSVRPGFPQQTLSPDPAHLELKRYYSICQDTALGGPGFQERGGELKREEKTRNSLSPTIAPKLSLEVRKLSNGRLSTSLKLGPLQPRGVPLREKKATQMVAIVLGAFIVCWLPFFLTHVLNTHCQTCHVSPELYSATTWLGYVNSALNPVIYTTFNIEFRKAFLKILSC
Protocol: as §1, §2
The incubation buffer contained 50 mM tris, 120 mM NaCl, 5 mM KCl, 2 mM CaCl2, 2 mM MgCl2 and 0.1% bovine serum albumin, 10 μM quinolone and 0.1% ascorbic acid (prepared fresh daily). The buffer was adjusted to pH 7.4 with HCl.
as §3, §4, §5, §6

Row | Ki [1] | Ki [2] | Ki(D2)*/Ki(D3)* [2] | SMILES
1 | 309 nM | 1.4 nM | 221 | CCCN[C@H]1CCc2cc(NS(=O)(=O)c3ccc(C(C)C(F)(F)F)cc3)ccc2C1 (mixture of isomers) [Example 40, N—((S)-6-Propylamino-5,6,7,8-tetrahydro-naphthalen-2-yl)-4-(2,2,2-trifluoro-1-methyl-ethyl)benzenesulfonamide-racemate]
2 | 1830 nM | 19 nM | 96 | CCC(=O)N1CCC[C@@H]2Cc3cc(NS(=O)(=O)c4ccc(C(C)C)cc4)ccc3C[C@H]21 (relative stereo) [Example 22, trans-4-Isopropyl-N-(1-propionyl-1,2,3,4,4a,5,10,10a-octahydro-benzo[g]quinolin-7-yl)benzenesulfonamide]
3 | 116 nM | 2.3 nM | 50 | CCCN1CCC[C@@H]2Cc3cc(NS(=O)(=O)c4ccc(C(C)C)cc4)ccc3C[C@H]21 (relative stereo) [Example 23, trans-4-Isopropyl-N-(1-propyl-1,2,3,4,4a,5,10,10a-octahydro-benzo[g]quinolin-7-yl)benzenesulfonamide]
4 | 442 nM | 14 nM | 32 | CCCN[C@@H]1CCc2ccc(NS(=O)(=O)c3ccc(C(C)C)cc3)cc2C1 [Example 2, (R)-4-Isopropyl-N—((R)-7-propylamino-5,6,7,8-tetrahydro-naphthalen-2-yl)benzenesulfonamide]
5 | 10.3 nM | 0.34 nM | 30 | CCCN[C@@H]1CCc2cc(NS(=O)(=O)c3ccc(C(C)C)cc3)ccc2C1 [Example 3, 4-Isopropyl-N—((R)-6-propylamino-5,6,7,8-tetrahydro-naphthalen-2-yl)-benzenesulfonamide]
6 | – | 2.5 nM | 100 | CCCN[C@H]1CCc2cc(NS(=O)(=O)c3ccc(OC(F)F)cc3)ccc2C1.Cl [Example 46, 4-Difluoromethoxy-N—((S)-6-propylamino-5,6,7,8-tetrahydro-naphthalen-2-yl)benzenesulfonamide, hydrochloride]
7 | – | 5.1 nM | 70 | CCCN[C@H]1CCc2cc(NS(=O)(=O)c3ccc(CC(F)(F)F)cc3)ccc2C1.Cl [Example 47, N—((S)-6-Propylamino-5,6,7,8-tetrahydro-naphthalen-2-yl)-4-(2,2,2-trifluoro-ethyl)benzenesulfonamide, hydrochloride]
8 | – | 1.5 nM | 128 | CCCN[C@H]1CCc2cc(NS(=O)(=O)c3ccc(C4CC4(F)F)cc3)ccc2C1.Cl (stereo partly drawn) [Example 48, 4-(2,2-Difluoro-cyclopropyl)-N—((S)-6-propylamino-5,6,7,8-tetrahydro-naphthalen-2-yl)benzenesulfonamide, hydrochloride]
9 | – | 1.3 nM | 63 | CCCN[C@H]1CCc2cc(NS(=O)(=O)c3ccc(N4CCCC4)cc3)ccc2C1.Cl [Example 49, N—((S)-6-Propylamino-5,6,7,8-tetrahydro-naphthalen-2-yl)-4-pyrrolidin-1-ylbenzenesulfonamide, hydrochloride]
10 | – | 1.8 nM | 95 | CCCN[C@H]1CCc2cc(NS(=O)(=O)c3ccc(N(C)C)cc3)ccc2C1.Cl [Example 50, 4-Dimethylamino-N—((S)-6-propylamino-5,6,7,8-tetrahydro-naphthalen-2-yl)benzenesulfonamide, hydrochloride]
11 | – | 1.7 nM | 56 | CCCN[C@H]1CCc2cc(NS(=O)(=O)c3ccc(CCCF)cc3)ccc2C1 [Example 51, 4-(3-Fluoro-propyl)-N—((S)-6-propylamino-5,6,7,8-tetrahydro-naphthalen-2-yl)benzenesulfonamide]
12 | – | 1.7 nM | 230 | CCCN[C@H]1CCc2cc(NS(=O)(=O)c3ccc([C@H](C)CF)cc3)ccc2C1.Cl [Example 55, 4-((S)-2-Fluoro-1-methyl-ethyl)-N—((S)-6-propylamino-5,6,7,8-tetrahydro-naphthalen-2-yl)benzenesulfonamide, hydrochloride]
13 | – | 2.4 nM | 161 | CCCN[C@H]1CCc2cc(NS(=O)(=O)c3ccc([C@@H](C)CF)cc3)ccc2C1.Cl [Example 56, 4-((R)-2-Fluoro-1-methyl-ethyl)-N—((S)-6-propylamino-5,6,7,8-tetrahydro-naphthalen-2-yl)benzenesulfonamide, hydrochloride]
14 | – | 0.15 nM | 229 | CCCN[C@@H]1CCc2cc(NS(=O)(=O)c3ccc(CCCF)cc3)ccc2C1.Cl [Example 58, 4-(3-Fluoro-propyl)-N—((R)-6-propylamino-5,6,7,8-tetrahydro-naphthalen-2-yl)benzenesulfonamide, hydrochloride]
15 | – | 9.4 nM | 274 | CCCN[C@H]1CCc2cc(NS(=O)(=O)c3ccc(C(C)=O)cc3)ccc2C1 [Example 60, 4-Acetyl-N—((S)-6-propylamino-5,6,7,8-tetrahydro-naphthalen-2-yl)-benzenesulfonamide]
16 | – | 30.9 nM | 40 | CCN[C@H]1CCc2cc(NS(=O)(=O)c3ccc(OC(F)(F)F)cc3)ccc2C1.Cl [Example 63, N—((S)-6-Ethylamino-5,6,7,8-tetrahydro-naphthalen-2-yl)-4-trifluoromethoxybenzenesulfonamide, hydrochloride]
17 | – | 3.4 nM | 70 | CCN[C@H]1CCc2cc(NS(=O)(=O)c3ccc(C(C)C)cc3)ccc2C1.Cl [Example 64, N—((S)-6-Ethylamino-5,6,7,8-tetrahydro-naphthalen-2-yl)-4-isopropyl-benzenesulfonamide, hydrochloride]
18 | – | 2 nM | 42 | CC(C)c1ccc(S(=O)(=O)Nc2ccc3c(c2)CC[C@H](NCCCF)C3)cc1.Cl [Example 68, N—[(S)-6-(3-Fluoro-propylamino)-5,6,7,8-tetrahydro-naphthalen-2-yl]-4-isopropylbenzenesulfonamide, hydrochloride]
19 | – | 3.6 nM | 61 | CCN[C@H]1CCc2cc(NS(=O)(=O)c3ccc(N4CCCC4)cc3)ccc2C1.Cl [Example 70, N—((S)-6-Ethylamino-5,6,7,8-tetrahydro-naphthalen-2-yl)-4-pyrrolidin-1-ylbenzenesulfonamide, hydrochloride]
20 | 250 nM | – | – | CCCN[C@H]1CCc2cc(NS(=O)(=O)c3ccc(OC(F)F)cc3)ccc2C1 [Example 74, 4-Difluoromethoxy-N—((S)-6-propylamino-5,6,7,8-tetrahydro-naphthalen-2-yl)benzenesulfonamide, hydrochloride]

Row | SMILES | Ki [1] | Ki [2] | Ki(D2)*/Ki(D3)* [2]
21 | CCCN[C@H]1CCc2cc(NS(=O)(=O)c3ccc(CCC)s3)ccc2C1.Cl [Example 52, 5-Propyl-thiophene-sulfonic acid ((S)-6-propylamino-5,6,7,8-tetrahydro-naphthalen-2-yl)amide, hydrochloride] | – | 0.7 nM | 71
22 | CCCN[C@H]1CCc2cc(NS(=O)(=O)c3ccc(C(C)(C)F)cc3)ccc2C1.O=C(O)C(F)(F)F [Example 62, 4-(1-Fluoro-1-methyl-ethyl)-N—((S)-6-propylamino-5,6,7,8-tetrahydro-naphthalen-2-yl)benzenesulfonamide, trifluoro acetate] | – | 6.2 nM | 77
